# Laboratory results: patent US4851387A, “5-substituted amino-4-hydroxy-pentanoic acid derivatives and their use” (Banyu Pharmaceutical Co., Ltd., priority 1986, dated 1989)
# Molecular target: T1, renin (human plasma) (Homo sapiens, UniProt P00797)
# T1 construct: from tissue; host or cells: human plasma
# T1 sequence (P00797 67-406): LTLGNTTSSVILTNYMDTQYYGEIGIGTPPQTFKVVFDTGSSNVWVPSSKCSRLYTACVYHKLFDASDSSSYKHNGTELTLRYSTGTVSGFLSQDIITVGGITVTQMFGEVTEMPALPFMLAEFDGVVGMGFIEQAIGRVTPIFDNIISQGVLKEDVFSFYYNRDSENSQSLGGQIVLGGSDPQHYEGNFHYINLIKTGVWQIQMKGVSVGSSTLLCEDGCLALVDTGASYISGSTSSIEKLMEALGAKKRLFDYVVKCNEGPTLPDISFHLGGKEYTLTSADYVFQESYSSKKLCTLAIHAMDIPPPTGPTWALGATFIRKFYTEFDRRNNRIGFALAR
# Assay: Test example for renin inhibiting activities: angiotensin I formation in human plasma, measured by radio immunoassay
# Assay type: biochemical
# Conditions: 0.2M sodium phosphate buffer pH7.4, 37° C. for one hour, read-out: IC50 (mol), 50% inhibition concentration of renin inhibiting activity
# Protocol: To 156 μl of a 0.2M sodium phosphate buffer solution (pH7.4), 40 μl of a solution mixture of 34 mM 8-hydroxyquinoline and 100 mM disodium ethylenediaminetetraacetate, 4 μl of dimethyl sulfoxide or a dimethyl sulfoxide solution of an inhibitor and 200 μl of human plasma were added and reacted at 37° C. for one hour. Then, pepstatin was added thereto to terminate the reaction, and the amount of the resulting angiotension I was measured by radio immunoassay whereby the inhibiting activity was determined.
row,IC50 [nM],Compound
1,5,"CCCCC(NC(=O)C(Cc1cccc2ccccc12)NC(=O)OCc1ccccc1)C(=O)N[C@@H](CC(C)C)[C@@H](O)CC(CCCO)C(=O)NCC(C)C (mixture of isomers) [Example 14(8), (2RS,4S,5S)-5-(L-N-benzyloxycarbonylnaphthylalanyl-L-norleucyl)amino-4-hydroxy-2-(3-hydroxypropyl)-7-methyl-octanoic acid isobutylamide]"
2,40,"CCCCC(NC(=O)C(Cc1cccc2ccccc12)NC(=O)OCc1ccccc1)C(=O)N[C@@H](CC(C)C)[C@@H](O)CC(C(=O)NCC(C)C)C(C)C (mixture of isomers) [comparative compound, (2RS,4S,5S)-5-(L-N-benzyloxycarbonyl-naphthylalanyl-L-norleucyl)amino-4-hydroxy-2-isopropyl-7-methyl-octanoic acid isobutylamide, reference compound]"
3,7,"(2RS,4S,5S)-5-(L-N-benzyloxycarbonylnaphthylalanyl-L-norleucyl)amino-4-hydroxy-2-(2-hydroxyethyl)-7-methyloctanoic acid isobutylamide [Example 15(3)]"
